Experimental data as given in patent publication US20250171420A1 (Monte Rosa Therapeutics, Inc., priority 2022, published 2025).

Target: T1, CK1α (Homo sapiens, UniProt P48729)
T1 construct: HEK293 clonal lines with CRISPR KI HiBiT tag on CSNK1A1
Assay: CK1α NanoBit Assay (HiBiT-tagged CSNK1A1, HEK293 clonal lines)
Assay type: cell-based
Conditions: HEK293 HiBiT-CSNK1A1/LgBiT cells, 24 h incubation
Experimental: HEK293 clonal lines with CRISPR KI HiBiT tag on CSNK1A1 and stably expressing LgBiT protein were obtained from Promega (Madison, WI). […] Cells were incubated at 37° C., 5% CO2 for 24 hours and then signal was read on a Pherastar FSX using “LUM plus” optic module.
Data analysis was performed in Scinamic (Scinamic, Cambridge, MA). Luminescence response (R) was calculated by the formula: response=100*(S−N)/(P−N) where S is the signal of the well, N and P the mean negative and positive control values respectively of the same plate.
DC50 data are reported in Table 2 for compounds in Table 1. In Table 2 below, According to the code, A represents a DC50 value of ≤0.1 μM, B represents a DC50 value>0.1 μM and ≤1 μM, C represents an DC50 value>1 μM.

T1 sequence (P48729 whole entry): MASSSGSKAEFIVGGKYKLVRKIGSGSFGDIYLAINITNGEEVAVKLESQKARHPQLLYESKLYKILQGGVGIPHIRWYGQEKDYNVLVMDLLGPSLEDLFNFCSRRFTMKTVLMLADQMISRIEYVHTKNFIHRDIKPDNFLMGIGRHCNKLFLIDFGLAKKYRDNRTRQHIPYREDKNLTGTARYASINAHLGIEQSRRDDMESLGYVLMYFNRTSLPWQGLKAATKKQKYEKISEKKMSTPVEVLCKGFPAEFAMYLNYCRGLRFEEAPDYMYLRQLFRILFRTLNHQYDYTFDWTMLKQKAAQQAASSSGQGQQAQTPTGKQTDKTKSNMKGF
T1 sequence (Q96SW2 whole entry, further chain): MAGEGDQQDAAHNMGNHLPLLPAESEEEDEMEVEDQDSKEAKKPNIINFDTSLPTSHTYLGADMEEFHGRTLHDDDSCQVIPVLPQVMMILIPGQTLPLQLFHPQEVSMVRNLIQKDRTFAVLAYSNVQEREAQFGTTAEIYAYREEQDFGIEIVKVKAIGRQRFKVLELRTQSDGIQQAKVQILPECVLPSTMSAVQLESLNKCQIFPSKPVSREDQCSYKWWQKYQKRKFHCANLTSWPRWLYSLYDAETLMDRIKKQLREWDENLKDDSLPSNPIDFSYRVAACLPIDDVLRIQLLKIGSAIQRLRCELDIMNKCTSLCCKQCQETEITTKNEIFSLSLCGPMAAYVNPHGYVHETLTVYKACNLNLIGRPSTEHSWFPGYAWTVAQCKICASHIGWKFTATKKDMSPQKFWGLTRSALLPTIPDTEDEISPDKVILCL
T1 sequence (Q16531 2-1140 partner limits assumed): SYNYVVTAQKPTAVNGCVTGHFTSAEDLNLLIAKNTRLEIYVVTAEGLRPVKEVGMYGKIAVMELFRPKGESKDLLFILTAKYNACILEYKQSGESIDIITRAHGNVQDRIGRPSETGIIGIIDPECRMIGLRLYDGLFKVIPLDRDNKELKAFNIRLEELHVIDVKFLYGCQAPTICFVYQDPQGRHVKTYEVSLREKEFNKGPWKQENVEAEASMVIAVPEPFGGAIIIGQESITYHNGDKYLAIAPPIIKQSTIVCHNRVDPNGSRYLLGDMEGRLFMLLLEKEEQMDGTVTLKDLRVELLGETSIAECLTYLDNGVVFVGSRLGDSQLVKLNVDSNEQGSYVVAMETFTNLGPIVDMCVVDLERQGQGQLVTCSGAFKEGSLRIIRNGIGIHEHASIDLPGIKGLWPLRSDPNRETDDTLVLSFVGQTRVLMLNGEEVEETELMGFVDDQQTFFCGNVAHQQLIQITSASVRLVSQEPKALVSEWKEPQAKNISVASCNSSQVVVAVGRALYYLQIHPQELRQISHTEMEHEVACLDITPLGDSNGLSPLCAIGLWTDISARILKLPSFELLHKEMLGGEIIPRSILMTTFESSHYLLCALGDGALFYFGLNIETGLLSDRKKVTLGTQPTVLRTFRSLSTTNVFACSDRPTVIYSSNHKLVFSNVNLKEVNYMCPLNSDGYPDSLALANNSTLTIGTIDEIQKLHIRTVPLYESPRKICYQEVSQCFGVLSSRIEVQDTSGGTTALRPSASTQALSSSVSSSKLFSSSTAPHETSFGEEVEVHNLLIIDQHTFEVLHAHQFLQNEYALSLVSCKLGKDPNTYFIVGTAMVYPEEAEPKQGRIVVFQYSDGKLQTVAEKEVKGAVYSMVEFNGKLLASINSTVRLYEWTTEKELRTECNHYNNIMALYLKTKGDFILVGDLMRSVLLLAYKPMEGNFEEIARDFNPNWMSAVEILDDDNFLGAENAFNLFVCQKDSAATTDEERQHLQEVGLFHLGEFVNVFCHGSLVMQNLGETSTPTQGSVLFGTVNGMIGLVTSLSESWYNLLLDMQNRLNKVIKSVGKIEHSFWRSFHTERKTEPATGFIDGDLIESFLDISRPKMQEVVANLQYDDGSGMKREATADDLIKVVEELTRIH

SMILES	DC50
O=C1CCC(N2Cc3cc(NC(=O)N4CC5CC5c5cc(Br)ccc54)ccc3C2=O)C(=O)N1 (centres unmarked) [Compound 173]	< 0.1 µM
Cc1ccc2c(c1)CN(C(=O)Nc1ccc3c(c1)CN(C1CCC(=O)NC1=O)C3=O)C2 (centres unmarked) [Compound 175]	< 0.1 µM
N#Cc1cccc2c1CCN(C(=O)Nc1ccc3c(c1)CN(C1CCC(=O)NC1=O)C3=O)C2 (centres unmarked) [Compound 176]	0.1 to 1 µM
O=C1CCC(N2Cc3cc(NC(=O)N4Cc5ccc(Cl)cc5C4)ccc3C2=O)C(=O)N1 (centres unmarked) [Compound 177]	< 0.1 µM
CC(C)(C)c1ccc2c(c1)CN(C(=O)Nc1ccc3c(c1)CN(C1CCC(=O)NC1=O)C3=O)CC2 (centres unmarked) [Compound 179]	< 0.1 µM
O=C1CCC(N2Cc3cc(NC(=O)N4CCc5ccc(F)cc5C4)ccc3C2=O)C(=O)N1 (centres unmarked) [Compound 180]	< 0.1 µM
CC(C)C1c2ccccc2CCN1C(=O)Nc1ccc2c(c1)CN(C1CCC(=O)NC1=O)C2=O (centres unmarked) [Compound 181]	< 0.1 µM
O=C1CCC(N2Cc3cc(NC(=O)N4Cc5cccc(Cl)c5C4)ccc3C2=O)C(=O)N1 (centres unmarked) [Compound 182]	< 0.1 µM
O=C1CCC(N2Cc3cc(NC(=O)N4CCc5ccc(-c6ccccc6)cc5C4)ccc3C2=O)C(=O)N1 (centres unmarked) [Compound 183]	< 0.1 µM
O=C1CCC(N2Cc3cc(NC(=O)N4CCc5c(F)cccc5C4)ccc3C2=O)C(=O)N1 (centres unmarked) [Compound 184]	< 0.1 µM
O=C1CCC(N2Cc3cc(NC(=O)N4CCc5cc(F)ccc5C4)ccc3C2=O)C(=O)N1 (centres unmarked) [Compound 193]	< 0.1 µM
CC(C)(C)c1ccc2c(c1)CCN(C(=O)Nc1ccc3c(c1)CN(C1CCC(=O)NC1=O)C3=O)C2 (centres unmarked) [Compound 194]	< 0.1 µM
O=C1CCC(N2Cc3cc(NC(=O)N4CCc5cccnc5C4)ccc3C2=O)C(=O)N1 (centres unmarked) [Compound 195]	0.1 to 1 µM
O=C1CCC(N2Cc3cc(NC(=O)N4Cc5ccccc5C(C(F)(F)F)C4)ccc3C2=O)C(=O)N1 (centres unmarked) [Compound 196]	< 0.1 µM
COc1ccc2c(c1)CN(C(=O)Nc1ccc3c(c1)CN(C1CCC(=O)NC1=O)C3=O)C2 (centres unmarked) [Compound 199]	< 0.1 µM
CC1(C)CN(C(=O)Nc2ccc3c(c2)CN(C2CCC(=O)NC2=O)C3=O)Cc2ccccc21 (centres unmarked) [Compound 200]	< 0.1 µM
O=C1CCC(N2Cc3cc(NC(=O)N4Cc5cccc(F)c5C4)ccc3C2=O)C(=O)N1 (centres unmarked) [Compound 202]	< 0.1 µM
O=C1CCC(N2Cc3cc(NC(=O)N4Cc5ccccc5C(F)(F)C4)ccc3C2=O)C(=O)N1 (centres unmarked) [Compound 204]	< 0.1 µM
O=C1CCC(N2Cc3cc(NC(=O)N4Cc5ccccc5C(n5cccn5)C4)ccc3C2=O)C(=O)N1 (centres unmarked) [Compound 206]	0.1 to 1 µM
O=C1CCC(N2Cc3cc(NC(=O)N4CCc5cnccc5C4)ccc3C2=O)C(=O)N1 (centres unmarked) [Compound 207]	> 1 µM
CCC1c2ccccc2CN1C(=O)Nc1ccc2c(c1)CN(C1CCC(=O)NC1=O)C2=O (centres unmarked) [Compound 208]	< 0.1 µM
O=C1CCC(N2Cc3cc(NC(=O)N4CCc5ccccc5C4c4ccccc4)ccc3C2=O)C(=O)N1 (centres unmarked) [Compound 211]	< 0.1 µM
O=C1CCC(N2Cc3cc(NC(=O)N4CCc5cccc(C(F)(F)F)c5C4)ccc3C2=O)C(=O)N1 (centres unmarked) [Compound 212]	< 0.1 µM
N#Cc1cccc2c1CN(C(=O)Nc1ccc3c(c1)CN(C1CCC(=O)NC1=O)C3=O)C2 (centres unmarked) [Compound 213]	0.1 to 1 µM

SMILES	DC50
O=C1CCC(N2Cc3cc(NC(=O)N4Cc5ccccc5CC4c4ccccc4)ccc3C2=O)C(=O)N1 (centres unmarked) [Compound 215]	< 0.1 µM
O=C1CCC(N2Cc3cc(NC(=O)N4CC(c5ccccc5F)C4)ccc3C2=O)C(=O)N1 (centres unmarked) [Compound 217]	< 0.1 µM
O=C1CCC(N2Cc3cc(NC(=O)N4C5CCCC4C5)ccc3C2=O)C(=O)N1 (centres unmarked) [Compound 218]	< 0.1 µM
O=C1CCC(N2Cc3cc(NC(=O)N4CCCCC4C(F)(F)F)ccc3C2=O)C(=O)N1 (centres unmarked) [Compound 219]	< 0.1 µM
O=C1CCC(N2Cc3cc(NC(=O)N4C[C@@H]5[C@H]6CC[C@H](C6)[C@@H]5C4)ccc3C2=O)C(=O)N1 (some centres unmarked) [Compound 220]	< 0.1 µM
O=C1CCC(N2Cc3cc(NC(=O)N4CCC5CC54)ccc3C2=O)C(=O)N1 (centres unmarked) [Compound 221]	0.1 to 1 µM
Cn1cc(C2CCN(C(=O)Nc3ccc4c(c3)CN(C3CCC(=O)NC3=O)C4=O)C2)cn1 (centres unmarked) [Compound 222]	> 1 µM
O=C1CCC(N2Cc3cc(NC(=O)N4CCC(c5cnccn5)C4)ccc3C2=O)C(=O)N1 (centres unmarked) [Compound 223]	> 1 µM
Cc1ccc(C2CCCN2C(=O)Nc2ccc3c(c2)CN(C2CCC(=O)NC2=O)C3=O)cn1 (centres unmarked) [Compound 224]	0.1 to 1 µM
Cc1cccc(C2(O)CN(C(=O)Nc3ccc4c(c3)CN(C3CCC(=O)NC3=O)C4=O)C2)c1 (centres unmarked) [Compound 225]	> 1 µM
Cc1cccc(C2CN(C(=O)Nc3ccc4c(c3)CN(C3CCC(=O)NC3=O)C4=O)C2)c1 (centres unmarked) [Compound 226]	< 0.1 µM
Cc1ccccc1C1CN(C(=O)Nc2ccc3c(c2)CN(C2CCC(=O)NC2=O)C3=O)C1 (centres unmarked) [Compound 227]	< 0.1 µM
Cc1ccc(C2CN(C(=O)Nc3ccc4c(c3)CN(C3CCC(=O)NC3=O)C4=O)C2)cc1 (centres unmarked) [Compound 228]	< 0.1 µM
O=C1CCC(N2Cc3cc(NC(=O)N4CCC(c5ncccn5)C4)ccc3C2=O)C(=O)N1 (centres unmarked) [Compound 229]	> 1 µM
O=C1CCC(N2Cc3cc(NC(=O)N4C[C@H]5CC4[C@H](c4ccccc4)C5)ccc3C2=O)C(=O)N1 (some centres unmarked) [Compound 230]	0.1 to 1 µM
O=C1CCC(N2Cc3cc(NC(=O)N4CC(c5ccc(Cl)cc5)C4)ccc3C2=O)C(=O)N1 (centres unmarked) [Compound 231]	< 0.1 µM
O=C1CCC(N2Cc3cc(NC(=O)N4CCCCC4C4CC4)ccc3C2=O)C(=O)N1 (centres unmarked) [Compound 232]	0.1 to 1 µM
CC(C)C1(c2ccccc2)CN(C(=O)Nc2ccc3c(c2)CN(C2CCC(=O)NC2=O)C3=O)C1 (centres unmarked) [Compound 233]	0.1 to 1 µM
O=C1CCC(N2Cc3cc(NC(=O)N4CCN(C56CC(C5)C6)CC4)ccc3C2=O)C(=O)N1 (centres unmarked) [Compound 234]	> 1 µM
CC(C)[C@]12C[C@H]1CN(C(=O)Nc1ccc3c(c1)CN(C1CCC(=O)NC1=O)C3=O)C2 (some centres unmarked) [Compound 235]	< 0.1 µM
O=C1CCC(N2Cc3cc(NC(=O)N4CC5[C@@H](CCN5c5ccccc5)C4)ccc3C2=O)C(=O)N1 (some centres unmarked) [Compound 236]	0.1 to 1 µM
O=C1CCC(N2Cc3cc(NC(=O)N4CC(CC(F)F)(c5ccccc5)C4)ccc3C2=O)C(=O)N1 (centres unmarked) [Compound 237]	0.1 to 1 µM
O=C1CCC(N2Cc3cc(NC(=O)N4CC(c5cccc(F)c5)C4)ccc3C2=O)C(=O)N1 (centres unmarked) [Compound 238]	0.1 to 1 µM
O=C1CCC(N2Cc3cc(NC(=O)N4CCC(c5ccc(F)cn5)C4)ccc3C2=O)C(=O)N1 (centres unmarked) [Compound 239]	0.1 to 1 µM

SMILES	DC50
O=C1CCC(N2Cc3cc(NC(=O)N4C[C@@H]5C[C@]5(C(F)F)C4)ccc3C2=O)C(=O)N1 (some centres unmarked) [Compound 240]	0.1 to 1 µM
O=C1CCC(N2Cc3cc(NC(=O)N4CC(c5cccc(C(F)(F)F)c5)C4)ccc3C2=O)C(=O)N1 (centres unmarked) [Compound 241]	0.1 to 1 µM
O=C1CCC(N2Cc3cc(NC(=O)N4CCN(c5nccs5)CC4)ccc3C2=O)C(=O)N1 (centres unmarked) [Compound 242]	> 1 µM
Cn1cc(N2CCN(C(=O)Nc3ccc4c(c3)CN(C3CCC(=O)NC3=O)C4=O)CC2)cn1 (centres unmarked) [Compound 243]	> 1 µM
N#Cc1ccc(C2CN(C(=O)Nc3ccc4c(c3)CN(C3CCC(=O)NC3=O)C4=O)C2)cc1 (centres unmarked) [Compound 244]	0.1 to 1 µM
O=C1CCC(N2Cc3cc(NC(=O)N4C[C@H](c5ccccc5)[C@H]4CO)ccc3C2=O)C(=O)N1 (some centres unmarked) [Compound 245]	0.1 to 1 µM
Cc1ccnc(C2CCN(C(=O)Nc3ccc4c(c3)CN(C3CCC(=O)NC3=O)C4=O)CC2)n1 (centres unmarked) [Compound 246]	> 1 µM
O=C1CCC(N2Cc3cc(NC(=O)N4CCC(c5nccs5)C4)ccc3C2=O)C(=O)N1 (centres unmarked) [Compound 247]	0.1 to 1 µM
O=C1CCC(N2Cc3cc(NC(=O)N4CCCC(C5CCC5)C4)ccc3C2=O)C(=O)N1 (centres unmarked) [Compound 248]	< 0.1 µM
O=C1CCC(N2Cc3cc(NC(=O)N4CCN(c5cccnc5)CC4)ccc3C2=O)C(=O)N1 (centres unmarked) [Compound 249]	> 1 µM
Cn1nccc1C1CCCN(C(=O)Nc2ccc3c(c2)CN(C2CCC(=O)NC2=O)C3=O)C1 (centres unmarked) [Compound 250]	> 1 µM
O=C1CCC(N2Cc3cc(NC(=O)N4CCC(O)CC4)ccc3C2=O)C(=O)N1 (centres unmarked) [Compound 251]	> 1 µM
CCC1(c2ccccc2)CN(C(=O)Nc2ccc3c(c2)CN(C2CCC(=O)NC2=O)C3=O)C1 (centres unmarked) [Compound 252]	0.1 to 1 µM
O=C1CCC(N2Cc3cc(NC(=O)N4CCCCC4c4ccccc4)ccc3C2=O)C(=O)N1 (centres unmarked) [Compound 253]	< 0.1 µM
O=C1CCC(N2Cc3cc(NC(=O)N4CCN(c5cnccn5)CC4)ccc3C2=O)C(=O)N1 (centres unmarked) [Compound 254]	> 1 µM
O=C1CCC(N2Cc3cc(NC(=O)N4CCCC5(CCC5)C4)ccc3C2=O)C(=O)N1 (centres unmarked) [Compound 255]	< 0.1 µM
CC1CN(c2ccccc2)CCN1C(=O)Nc1ccc2c(c1)CN(C1CCC(=O)NC1=O)C2=O (centres unmarked) [Compound 257]	0.1 to 1 µM
CC1(c2ccccc2F)CN(C(=O)Nc2ccc3c(c2)CN(C2CCC(=O)NC2=O)C3=O)C1 (centres unmarked) [Compound 258]	0.1 to 1 µM
CC1(c2ccccc2)CCCN(C(=O)Nc2ccc3c(c2)CN(C2CCC(=O)NC2=O)C3=O)C1 (centres unmarked) [Compound 259]	0.1 to 1 µM
O=C1CCC(N2Cc3cc(NC(=O)N4CCC(c5ccccc5)C4)ccc3C2=O)C(=O)N1 (centres unmarked) [Compound 260]	< 0.1 µM
Cc1ccccc1N1CCN(C(=O)Nc2ccc3c(c2)CN(C2CCC(=O)NC2=O)C3=O)CC1 (centres unmarked) [Compound 261]	< 0.1 µM
O=C1CCC(N2Cc3cc(NC(=O)N4CCCC(O)C4)ccc3C2=O)C(=O)N1 (centres unmarked) [Compound 262]	> 1 µM
O=C1CCC(N2Cc3cc(NC(=O)N4CCC(c5ccccn5)C4)ccc3C2=O)C(=O)N1 (centres unmarked) [Compound 263]	0.1 to 1 µM
